Results as given in the NIST ThermoML archive (doi:10.1016/j.jct.2019.06.011).
± gives the expanded uncertainty stated by the source.

Conditions: Liquid, Gas chromatography

Row | SMILES | vapor or sublimation pressure (298.15 K) [kPa] | vapor or sublimation pressure (310 K) [kPa] | vapor or sublimation pressure (320 K) [kPa] | vapor or sublimation pressure (330 K) [kPa] | vapor or sublimation pressure (340 K) [kPa] | vapor or sublimation pressure (350 K) [kPa] | vapor or sublimation pressure (360 K) [kPa] | vapor or sublimation pressure (370 K) [kPa] | vapor or sublimation pressure (380 K) [kPa] | vapor or sublimation pressure (390 K) [kPa] | vapor or sublimation pressure (400 K) [kPa] | vapor or sublimation pressure (410 K) [kPa] | vapor or sublimation pressure (420 K) [kPa] | vapor or sublimation pressure (430 K) [kPa] | vapor or sublimation pressure (440 K) [kPa] | vapor or sublimation pressure (450 K) [kPa] | vapor or sublimation pressure (460 K) [kPa] | vapor or sublimation pressure (470 K) [kPa] | vapor or sublimation pressure (480 K) [kPa] | vapor or sublimation pressure (490 K) [kPa] | further results
1 | CC(C)=CCC[C@@H](C)c1ccc(C)cc1 [(-)-α-curcumene] | 0.00097 ± 0.0001 | 0.003 ± 0.0003 | 0.007 ± 0.0007 | 0.015 ± 0.002 | 0.032 ± 0.003 | 0.063 ± 0.006 | 0.12 ± 0.012 | 0.21 ± 0.021 | 0.37 ± 0.037 | 0.62 ± 0.062 | 0.99 ± 0.1 | 1.6 ± 0.16 | 2.4 ± 0.24 | 3.5 ± 0.35 | 5.1 ± 0.51 | 7.3 ± 0.73 | 10 ± 1 | 14 ± 1.4 | 19 ± 1.9 | 25 ± 2.5 | vapor or sublimation pressure (500 K): 33 ± 3.3 kPa; vapor or sublimation pressure (510 K): 42 ± 4.2 kPa; vapor or sublimation pressure (520 K): 54 ± 5.4 kPa; vapor or sublimation pressure (530 K): 68 ± 6.8 kPa; vapor or sublimation pressure (540 K): 85 ± 8.5 kPa; vapor or sublimation pressure (548.3 K): 101.3 ± 10 kPa
2 | CC(C)=CCC[C@H](C)[C@@H]1C=CC(C)=CC1 [zingiberene] | 0.00081 ± 8e-05 | 0.0025 ± 0.0003 | 0.006 ± 0.0006 | 0.013 ± 0.001 | 0.028 ± 0.003 | 0.056 ± 0.006 | 0.11 ± 0.011 | 0.19 ± 0.019 | 0.33 ± 0.033 | 0.56 ± 0.056 | 0.91 ± 0.091 | 1.4 ± 0.14 | 2.2 ± 0.22 | 3.3 ± 0.33 | 4.8 ± 0.48 | 6.8 ± 0.68 | 9.6 ± 0.96 | 13 ± 1.3 | 18 ± 1.8 | 24 ± 2.4 | vapor or sublimation pressure (500 K): 31 ± 3.1 kPa; vapor or sublimation pressure (510 K): 41 ± 4.1 kPa; vapor or sublimation pressure (520 K): 52 ± 5.2 kPa; vapor or sublimation pressure (530 K): 66 ± 6.6 kPa; vapor or sublimation pressure (540 K): 83 ± 8.3 kPa; vapor or sublimation pressure (549.5 K): 101.3 ± 10 kPa
3 | C=C1C=C[C@@H]([C@@H](C)CCC=C(C)C)CC1 [β-sesquiphellandrene] | 0.00063 ± 6e-05 | 0.002 ± 0.0002 | 0.0048 ± 0.0005 | 0.011 ± 0.001 | 0.023 ± 0.002 | 0.046 ± 0.005 | 0.087 ± 0.009 | 0.16 ± 0.016 | 0.28 ± 0.028 | 0.47 ± 0.047 | 0.76 ± 0.076 | 1.2 ± 0.12 | 1.8 ± 0.18 | 2.8 ± 0.28 | 4 ± 0.4 | 5.8 ± 0.58 | 8.2 ± 0.82 | 11 ± 1.1 | 15 ± 1.5 | 20 ± 2 | vapor or sublimation pressure (500 K): 27 ± 2.7 kPa; vapor or sublimation pressure (510 K): 35 ± 3.5 kPa; vapor or sublimation pressure (520 K): 45 ± 4.5 kPa; vapor or sublimation pressure (530 K): 57 ± 5.7 kPa; vapor or sublimation pressure (540 K): 71 ± 7.1 kPa; vapor or sublimation pressure (556.5 K): 101.3 ± 10 kPa
